Legend:
nitrotyrosine protein = nitrotyrosine protein in kidney tissues (Western blot), renal ischemia and reperfusion; format: in vivo, mouse; conditions: L-tyrosine 100 mg/kg oral for 4 days, 24 hours after ischemia and reperfusion
Protocol: C57BL/6 male mouse (23 to 25 g, KOATECH, South Korea) was allowed to have free access to diets and water in sterile breeding room with constant temperature and humidity. The animals were divided into 3 test groups, i.e., 1) Control group (Sham), 2) Renal ischemia having treatment with prepared solvent and induced reperfusion group (CMC+IR), and 3) Renal ischemia having treatment with L-tyrosine and induced reperfusion group (L-Tyr+IR).
L-Tyrosine (100 mg/kg) was suspended in 0.5% CMC (carboxymethyl cellulose). The animal was orally administered, once a day for 4 days, with L-tyrosine or the prepared solvent CMC. Thirty minutes after the oral administration on Day 4, renal ischemia was caused. Specifically, the animal abdomen was cut and renal pedicles at both sides were clamped using a Muller atraumatic vascular clamp to cause renal ischemia. After 25 minutes of blood ischemia, the clamp was removed followed by reperfusion. The control group (Sham) received the same operational procedures as above except the ischemia using clamp. Twenty-four hours after the reperfusion, the test animal was sacrificed, blood was collected from the heart, and the tissues were harvested.
Kidney tissues were homogenized with RIPA buffer solution. After centrifuge for 15 minutes at 16,000×g, 4° C., supernatant was collected and the protein quantification was carried out by BCA method. […]

[1] = system: animal model of acute hepatic encephalopathy caused by AOM; assay: ammonia in blood, hepatic encephalopathy (hyperammonemia) caused by azoxymethane; format: in vivo, mouse; conditions: L-tyrosine 100 mg/kg oral once a day for 4 days, AOM 100 mg/kg i.p.
Protocol: C57BL/6 male mouse (13-week old, KOATECH, South Korea) was allowed to have free access to diets and water in sterile breeding room with constant temperature and humidity. The animals were divided into 3 test groups, i.e., (1) Control group (Control), (2) Carboxymethyl cellulose+azoxymethane treatment group (CMC+AOM), and (3) L-Tyrosine+AOM treatment group (L-Tyr+AOM). L-Tyrosine (100 mg/kg) was suspended in 0.5% CMC (carboxymethyl cellulose). The animal was orally administered, once a day for 4 days, with L-tyrosine or the prepared solvent CMC. Two hours after the oral administration on Day 4, intraperitoneal injection of AOM (100 mg/kg, […]) was carried out. To prevent dehydration, the animal was intraperitoneally injected with […] of physiological saline, 12 hours after the administration of AOM. Four hours after the injection, the test animal was sacrificed, blood was collected from the heart, and the liver tissues were harvested. Amount of ammonia in blood was measured by using PocketChem BA PA-4140 (Arkray, Japan), which is an analytical device based on single wavelength reflectometry. Specifically, blood was applied in an amount of 20 μl on a test strip followed by reaction for 3 minutes. The strip was then inserted to the measurement device to obtain the absorbance at a wavelength of 635 nm (LED), which was then expressed in unit of μg/dl.

[2] = system: chronic immobilization stress group (STR); assay: OFT (open field test) after chronic immobilization stress; format: in vivo, mouse; conditions: tyrosine-diet (TD, 181.2 mg/kg) compared to normal diet (ND)
Protocol: The animal models were divided into two groups (i.e., normal group and stress group). The animal of stress group was individually brought by force to a restrainer for 2 hours every day (i.e., between 2 PM and 4 PM) so that it was applied with chronic immobilization stress for 15 days. Change in bodyweight and food intake amount were measured every other day. The normal group and stress group were divided again into a normal diet group and a tyrosine-supplemented diet group (181.2 mg/kg), and then fed. OFT (open field test) was carried out using a rectangular box (60×60×20 cm). Mouse was placed at the center area of box (30×30 cm), and the mouse movement was followed for 5 minutes and total travel distance, center area duration, and frequency of center area entries were measured.

mouse PFC protein = assay: inhibitory effect on in vitro nitration of mouse PFC protein induced by ONOO−; format: biochemical; conditions: mouse PFC protein treated with ONOO−
From the text: By treating mouse PFC protein with ONOO^−, protein nitration was induced and the inhibitory effect on nitration by tyrosine was examined.

[3] = system: chronic immobilization stress group (STR); assay: corticosterone amount in plasma (ELISA), chronic immobilization stress; format: in vivo, mouse; conditions: tyrosine diet (181.2 mg/kg) compared to normal diet, p<0.05
Protocol: Each of the blood and PFC sample was obtained from a mouse anesthetized with CO2 gas. Specifically, mouse blood was collected between 9 AM and 11 AM and stored in a K3EDTA-coated vacuum container. Plasma was obtained by centrifuge for 10 minutes at 4° C., 500×g. PFC sample was weighed first, and, after lysis of the tissues by using Bullet homogenizer, subjected to centrifuge for 20 minutes at 4° C., 12,000 rpm. Thus-obtained plasma and tissue lysate were kept at −80° C. until use. After that, the animal was sacrificed, and a change in corticosterone amount in plasma was examined. ROS/RNS in plasma and PFC was also examined. The corticosterone amount was examined using an ELISA kit (Cayman) by following the manufacturer's protocol, and ROS/RNS was also examined using an ROS/RNS assay kit (Cell Biolabs, San Diego, CA, USA) by following the manufacturer's protocol. The animal models were divided into two groups (i.e., normal group and stress group). The animal of stress group was individually brought by force to a restrainer for 2 hours every day (i.e., between 2 PM and 4 PM) so that it was applied with chronic immobilization stress for 15 days. Change in bodyweight and food intake amount were measured every other day. The normal group and stress group were divided again into a normal diet group and a tyrosine-supplemented diet group (181.2 mg/kg), and then fed.

[4] = system: mouse model of chronic immobilization stress; assay: object location recognition test (OLT); format: in vivo; conditions: D-Tyr-containing diet (181 mg D-Tyr/kg AIN-93G), chronic stress 14 days
Protocol: Twenty-eight C57BL/6 male mice (7-week old) were divided into two groups, each group provided for 1 week with a normal diet or D-tyrosine (D-Tyr)-containing diet (181 mg D-Tyr/kg AIN-93G).
Once the animals become 8-week old, they were applied with chronic immobilization stress (CIS) under light condition of 200 lux, 2 hours per day for 2 weeks. The animals were divided into the control group (CTL), D-Tyr diet control group (CTL+D-Tyr), chronic stress group (STR), and D-Tyr diet chronic stress group (STR+D-Tyr), in which each group consists of 7 animals.
Upon the completion of the CIS for 2 weeks, a cognitive function test was carried out. To compare the cognitive function between the group provided with D-Tyr-containing diet over the entire test period including habituation period and normal feed diet group, an object recognition test (ORT) and an object location recognition test (OLT) for testing long-term memory skills were carried out.
OLT: 24 Hours after carrying out ORT, location of a familiar object was changed, and the animal was allowed to explore for 5 minutes. According to the same method as the aforementioned object recognition function index (DI), ratio of time spent for exploring an object with changed location compared to the entire time for exploring an object was calculated. Accordingly, object location recognition function index was obtained.

Compound | amount of nitrotyrosine protein in kidney tissues (nitrotyrosine protein) | blood ammonia [1] | center area duration [2] | frequency of center area entries [2] | travel distance [2] | inhibitory effect on nitration of proteins (mouse PFC protein) | corticosterone amount in plasma [3] | cognitive function according to OTL (object location recognition function index) [4]
N[C@@H](Cc1ccc(O)cc1)C(=O)O [L-tyrosine] | significantly reduced | suppressed |  |  |  |  |  | 
N[C@@H](Cc1ccc(O)cc1)C(=O)O [tyrosine] |  |  | higher | higher | higher | nitration of the proteins is inhibited in tyrosine concentration dependent manner | statistically significant decrease in corticosterone amount | maintained at the level of the control group

Source: patent US12605350B2, “Composition for preventing, ameliorating, or treating disease caused by nitration of tyrosine in proteins comprising tyrosine as effective component” (INDUSTRY-ACADEMIC COOPERATION FOUNDATION GYEONGSANG …, priority 2020, dated 2026)
